From patent US20250171431A1, “HETEROCYCLIC INHIBITORS OF IGF-1R FOR TREATMENT OF DISEASE” (HORIZON THERAPEUTICS IRELAND DAC, priority 2023, published 2025)

Target: IGF-1R (Homo sapiens (Human), UniProt P08069)
Experiment: Example B-1: IGF-1R Assay (PC3 cells, IGF1 stimulation, AlphaLISA)
Assay type: cell-based
Conditions: 200 ng/mL IGF1 stimulation, read-out: Biological Activity against IGF-1R IC50
In short: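 PC3 cells were serum-starved 2 h, treated with serially diluted compounds for 2 h, then stimulated with IGF1 (200 ng/mL final) for 30 min. Lysates were read by AlphaLISA; % inhibition was calculated relative to vehicle and EC80 controls, with IC50 values binned into ranges.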

IGF-1R, sequence (P08069 31-1367): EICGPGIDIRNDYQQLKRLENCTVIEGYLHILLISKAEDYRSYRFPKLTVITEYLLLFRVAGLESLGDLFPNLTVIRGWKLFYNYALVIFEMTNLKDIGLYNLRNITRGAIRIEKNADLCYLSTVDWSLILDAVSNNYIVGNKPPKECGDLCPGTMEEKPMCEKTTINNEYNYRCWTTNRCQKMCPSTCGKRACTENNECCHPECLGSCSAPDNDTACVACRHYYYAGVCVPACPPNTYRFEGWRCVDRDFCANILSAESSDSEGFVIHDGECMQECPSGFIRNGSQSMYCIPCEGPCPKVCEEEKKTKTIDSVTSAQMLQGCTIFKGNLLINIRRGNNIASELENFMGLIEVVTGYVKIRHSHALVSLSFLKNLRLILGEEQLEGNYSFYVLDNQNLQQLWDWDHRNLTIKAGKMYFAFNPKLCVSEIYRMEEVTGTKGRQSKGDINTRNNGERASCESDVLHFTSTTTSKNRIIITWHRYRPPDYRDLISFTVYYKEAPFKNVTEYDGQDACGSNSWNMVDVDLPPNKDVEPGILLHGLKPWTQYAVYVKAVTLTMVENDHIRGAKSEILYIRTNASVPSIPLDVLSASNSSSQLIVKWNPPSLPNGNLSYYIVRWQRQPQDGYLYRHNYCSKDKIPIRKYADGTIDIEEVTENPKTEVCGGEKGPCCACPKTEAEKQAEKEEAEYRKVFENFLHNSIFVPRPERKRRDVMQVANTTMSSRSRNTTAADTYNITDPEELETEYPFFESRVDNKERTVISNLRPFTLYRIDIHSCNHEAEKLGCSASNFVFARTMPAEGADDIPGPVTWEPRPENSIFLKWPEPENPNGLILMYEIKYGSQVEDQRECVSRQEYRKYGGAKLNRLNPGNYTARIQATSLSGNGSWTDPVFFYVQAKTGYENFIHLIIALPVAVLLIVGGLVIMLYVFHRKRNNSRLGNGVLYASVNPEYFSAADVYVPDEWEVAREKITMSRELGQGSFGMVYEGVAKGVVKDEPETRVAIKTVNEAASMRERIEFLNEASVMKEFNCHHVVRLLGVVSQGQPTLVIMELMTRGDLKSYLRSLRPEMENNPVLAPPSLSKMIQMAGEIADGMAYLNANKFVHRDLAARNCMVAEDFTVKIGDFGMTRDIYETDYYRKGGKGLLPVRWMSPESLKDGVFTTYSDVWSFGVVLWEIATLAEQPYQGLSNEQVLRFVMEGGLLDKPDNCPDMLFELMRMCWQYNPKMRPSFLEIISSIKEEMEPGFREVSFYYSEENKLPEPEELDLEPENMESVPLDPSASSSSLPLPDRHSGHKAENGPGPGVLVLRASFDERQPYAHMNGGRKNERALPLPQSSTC

IC50	Structure (SMILES)
500 to 2000 nM	COc1cc(Nc2nccc(Nc3ccc4c(c3)CCN(C)C4)n2)ccc1OCCCN1CCCCC1 [Compound 450, 2-[3-methoxy-4-(3-piperidinopropoxy)phenylamino]-4-(2-methyl-1,2,3,4-tetrahydro-6-isoquinolylamino) pyrimidine]
≤ 500 nM	COc1cc(Nc2nccc(Nc3ccc4scnc4c3)n2)ccc1OCCCN1CCCCC1 [Compound 443, 4-(1,3-benzothiazol-5-ylamino)-2-[3-methoxy-4-(3-piperidinopropoxy)phenylamino] pyrimidine]
2000 to 10000 nM	CN1CC(Oc2ccc(Nc3nccc(Nc4cnc5ccccc5c4)n3)cc2)C1 [Compound 295, 2-[p-(1-methyl-3-azetidinyloxy)phenylamino]-4-(3-quinolylamino)pyrimidine]
≤ 500 nM	COc1cc(Nc2nccc(Nc3cnc4c(c3)CCCC4(C)C)n2)ccc1OCCCN1CCCCC1 [Compound 73, 4-(8,8-dimethyl-5,6,7,8-tetrahydro-3-quinolylamino)-2-[3-methoxy-4-(3-piperidinopropoxy)phenylamino] pyrimidine]
≤ 500 nM	COc1cc(Nc2nccc(Nc3cnc4c(c3)COCC4)n2)ccc1OCCCN1CCCCC1 [Compound 53, 4-(7,8-dihydro-5H-6-oxa-1-azanaphth-3-ylamino)-2-[3-methoxy-4-(3-piperidinopropoxy)phenylamino] pyrimidine]
≤ 500 nM	O=C1CN([C@H]2CC[C@@H](Oc3ccc(Nc4nccc(Nc5cnc6ccc(Cl)cc6c5)n4)cc3)CC2)CCN1 [Compound 308]
≤ 500 nM	COc1cc(Nc2nccc(Nc3cnc4c(c3)CCOC4)n2)ccc1OCCCN1CCCCC1 [Compound 54, 4-(6,8-dihydro-5H-7-oxa-1-azanaphth-3-ylamino)-2-[3-methoxy-4-(3-piperidinopropoxy)phenylamino] pyrimidine]
500 to 2000 nM	COc1cc(Nc2nccc(Nc3cc4cccc(F)c4[nH]c3=O)n2)cnc1N1CCN(C)C(C(F)(F)F)C1 (stereo not shown) [Compound 174, 8-fluoro-3-((2-((5-methoxy-6-(4-methyl-3-(trifluoromethyl)piperazin-1-yl)pyridin-3-yl)amino)pyrimidin-4-yl)amino)quinolin-2(1H)-one]
≤ 500 nM	CN1CC2(Cc3ccc(Nc4nccc(Nc5cc6cccc(F)c6[nH]c5=O)n4)cc3O2)C1 [Compound 45, 8-fluoro-3-{2-(1-methyl-3′H-spiro[azetidine-3,2′-[1]benzofuran]-6′-ylamino)-4-pyrimidinylamino}-1,2-dihydro-2-quinolinone]
≤ 500 nM	Clc1cc(Nc2nccc(Nc3cnc4ccccc4c3)n2)ccc1N1CCOCC1 [Compound 459, 2-(3-chloro-4-morpholinophenylamino)-4-(3-quinolylamino)pyrimidine]
≤ 500 nM	COc1cc(Nc2nccc(Nc3cnc4cc(F)c(F)cc4c3)n2)cnc1N1CCNC(C(C)(C)O)C1 (stereo not shown) [Compound 52, 2-(4-{5-[4-(6,7-difluoro-3-quinolylamino)-2-pyrimidinylamino]-3-methoxy-2-pyridyl}-2-piperazinyl)-2-propanol]
≤ 500 nM	COc1cc(Nc2nccc(Nc3cnc4c(Cl)cccc4c3)n2)ccc1OCCCN1CCCCC1 [Compound 430, 4-(8-chloro-3-quinolylamino)-2-[3-methoxy-4-(3-piperidinopropoxy)phenylamino]pyrimidine]
500 to 2000 nM	COc1cc(Nc2nccc(Nc3cnc4c(c3)C3CCC(C4)O3)n2)ccc1OCCCN1CCCCC1 (stereo not shown) [Compound 60, 2-[3-methoxy-4-(3-piperidinopropoxy)phenylamino]-4-{12-oxa-6-azatricyclo[7.2.1.0^2,7]dodeca-2(7),3,5-trien-4-ylamino}pyrimidine]
2000 to 10000 nM	FC(F)(F)c1cccc2cc(Nc3ccnc(Nc4ccc(OCCCN5CCOCC5)cc4)n3)cnc12 [Compound 415, 2-[p-(3-morpholinopropoxy)phenylamino]-4-[8-(trifluoromethyl)-3-quinolylamino]pyrimidine]
≤ 500 nM	COc1cc(Nc2nccc(Nc3cnc4ccccc4c3)n2)ccc1O[C@H]1CC[C@@H](N(C)C)CC1 [Compound 331]
500 to 2000 nM	COc1cc(Nc2nccc(Nc3cc4cccc(F)c4[nH]c3=O)n2)cnc1O[C@H]1CCN(C)C1 [Compound 166, 3-(2-{6-[(S)-1-methyl-3-pyrrolidinyloxy]-5-methoxy-3-pyridylamino}-4-pyrimidinylamino)-8-fluoro-1,2-dihydro-2-quinolinone]
≤ 500 nM	COc1nc(N2CCC(C)(O)CC2)ccc1Nc1nccc(Nc2cnc3ccc(Cl)cc3c2)n1 [Compound 489, 1-{5-[4-(6-chloro-3-quinolylamino)-2-pyrimidinylamino]-6-methoxy-2-pyridyl}-4-methyl-4-piperidinol]

Further lines, the compound ahead of its results:

Structure (SMILES)	IC50
COc1cc(O[C@H]2C[C@@H](N(C)C)C2)ccc1Nc1nccc(Nc2cnc3ccccc3c2)n1 [Compound 19, 2-{2-methoxy-4-[(1s,3s)-3-(dimethylamino)cyclobutoxy]phenylamino}-4-(3-quinolylamino)pyrimidine]	≤ 500 nM
COc1cc(Nc2nccc(Nc3cnc4ccccc4c3)n2)ccc1O[C@H]1C[C@H](N(C)C)C1 [Compound 369, 2-{3-methoxy-4-[(1r,3r)-3-(dimethylamino)cyclobutoxy]phenylamino}-4-(3-quinolylamino)pyrimidine]	≤ 500 nM
COc1cc(Nc2nccc(Nc3cnc4ncc(Cl)cc4c3)n2)ccc1O[C@H]1C[C@@H](N(C)C)C1 [Compound 83, 4-(6-chloro-1,8-diaza-3-naphthylamino)-2-{3-methoxy-4-[(1s,3s)-3-(dimethylamino)cyclobutoxy]phenylamino}pyrimidine]	≤ 500 nM
COc1cc(Nc2nccc(Nc3cc4cccc(F)c4[nH]c3=O)n2)cnc1O[C@H]1C[C@@H](N(C)C)C1 [Compound 246, 8-fluoro-3-(2-{5-methoxy-6-[(1s,3s)-3-(dimethylamino)cyclobutoxy]-3-pyridylamino}-4-pyrimidinylamino)-1,2-dihydro-2-quinolinone]	≤ 500 nM
COc1cc(Nc2nccc(Nc3cnc4c(F)cccc4c3)n2)cnc1O[C@H]1C[C@@H](N(C)C)C1 [Compound 270, 4-(8-fluoro-3-quinolylamino)-2-{5-methoxy-6-[(1s,3s)-3-(dimethylamino)cyclobutoxy]-3-pyridylamino}pyrimidine]	≤ 500 nM
COc1cc(Nc2nccc(Nc3cnc4ccc(Cl)cc4c3)n2)ccc1O[C@H]1C[C@H](N2CCOCC2)C1 [Compound 361, 4-(6-chloro-3-quinolylamino)-2-{3-methoxy-4-[(1r,3r)-3-morpholinocyclobutoxy]phenylamino}pyrimidine]	≤ 500 nM
COc1cc(Nc2nccc(Nc3cnc4ccc(Cl)cc4c3)n2)ccc1O[C@H]1C[C@H](N2CCS(=O)(=O)CC2)C1 [Compound 25, 4-[(1r,3r)-3-{4-[4-(6-chloro-3-quinolylamino)-2-pyrimidinylamino]-2-methoxyphenoxy}cyclobutyl]-1λ^6,4-thiazinane-1,1-dione]	≤ 500 nM
c1ccc2ncc(Nc3ccnc(Nc4ccc(O[C@H]5C[C@H](N6CCOCC6)C5)cc4)n3)cc2c1 [Compound 26, 4-(3-quinolylamino)-2-{p-[(1r,3r)-3-morpholinocyclobutoxy]phenylamino}pyrimidine]	≤ 500 nM
COc1cc(Nc2nccc(Nc3ccc4ncc(Br)cc4n3)n2)ccc1O[C@H]1C[C@@H](N(C)C)C1 [Compound 314, 4-(7-bromo-1,5-diaza-2-naphthylamino)-2-{3-methoxy-4-[(1s,3s)-3-(dimethylamino)cyclobutoxy]phenylamino}pyrimidine]	> 10000 nM
CN(C)[C@H]1C[C@@H](Oc2ncc(Nc3nccc(Nc4cnc5c(c4)OCCO5)n3)cc2C#N)C1 [Compound 46, 5-[4-(2,3-dihydro-1,4-dioxa-5-aza-7-naphthylamino)-2-pyrimidinylamino]-2-[(1s,3s)-3-(dimethylamino)cyclobutoxy] nicotinonitrile]	≤ 500 nM
CN(C)[C@H]1C[C@H](Oc2ccc(Nc3nccc(Nc4cnc5ccc(Br)cc5c4)n3)cc2)C1 [Compound 320, 4-(6-bromo-3-quinolylamino)-2-{p-[(1r,3r)-3-(dimethylamino)cyclobutoxy]phenylamino}pyrimidine]	≤ 500 nM
COc1ccc2cc(Nc3ccnc(Nc4ccc(O[C@@H]5C[C@H]6COC[C@@H](C5)N6C)cc4)n3)cnc2c1 [Compound 345, 2-(p-{(1R,5S,7s)-9-methyl-3-oxa-9-azabicyclo[3.3.1]non-7-yloxy}phenylamino)-4-(7-methoxy-3-quinolylamino)pyrimidine]	500 to 2000 nM
COc1cc(Nc2nccc(Nc3cnc4c(F)cc(Cl)cc4c3)n2)ccc1O[C@H]1C[C@@H](N(C)C)C1 [Compound 114, 4-(6-chloro-8-fluoro-3-quinolylamino)-2-{3-methoxy-4-[(1s,3s)-3-(dimethylamino)cyclobutoxy]phenylamino}pyrimidine]	≤ 500 nM
COc1cc(Nc2nccc(Nc3cnc4c(c3)SCCC4)n2)ccc1O[C@H]1C[C@@H](N(C)C)C1 [Compound 366, 4-(3,4-dihydro-2H-1-thia-5-azanaphth-7-ylamino)-2-{3-methoxy-4-[(1s,3s)-3-(dimethylamino)cyclobutoxy]phenylamino}pyrimidine]	≤ 500 nM
COc1cc(Nc2nccc(Nc3cnc4c(c3)OCC(CN(C)C)O4)n2)ccc1O[C@H]1C[C@@H](N(C)C)C1 (stereo partly shown) [Compound 179, 4-{3-[(dimethylamino)methyl]-2,3-dihydro-1,4-dioxa-5-aza-7-naphthylamino}-2-{3-methoxy-4-[(1s,3s)-3-(dimethylamino)cyclobutoxy]phenylamino}pyrimidine]	≤ 500 nM
COc1cc(Nc2nccc(Nc3ncc4ccc(Br)cc4n3)n2)ccc1O[C@H]1C[C@@H](N(C)C)C1 [Compound 307, 4-(7-bromo-2-quinazolinylamino)-2-{3-methoxy-4-[(1s,3s)-3-(dimethylamino)cyclobutoxy]phenylamino}pyrimidine]	2000 to 10000 nM
COc1cc(Nc2nccc(Nc3cnc4ccc(Cl)cc4c3)n2)cnc1O[C@@H]1C[C@H](N(C)C)C1(C)C [Compound 258, 2-{6-[(1R,3S)-3-(dimethylamino)-2,2-dimethylcyclobutoxy]-5-methoxy-3-pyridylamino}-4-(6-chloro-3-quinolylamino)pyrimidine]	≤ 500 nM
